Laboratory results reported in ChEMBL document CHEMBL4396865, “Current advances of triazole alcohols derived from fluconazole: Design, in vitro and in silico studies” (2019).
In brackets after ≈: the same amount, converted by molar mass.

Legend:
Format in all cases: functional
Candida albicans [1] = experiment: Antifungal activity against Candida albicans; details: Candida albicans
Candida parapsilosis [2] = experiment: Antifungal activity against Candida parapsilosis; details: Lodderomyces parapsilosis
Candida tropicalis = experiment: Antifungal activity against Candida tropicalis; details: Candida tropicalis
Kluyveromyces marxianus = experiment: Antifungal activity against Candida kefyr; details: Kluyveromyces marxianus
Cryptococcus neoformans = experiment: Antifungal activity against Cryptococcus neoformans; details: Cryptococcus neoformans
Trichophyton rubrum = experiment: Antifungal activity against Trichophyton rubrum; details: Trichophyton rubrum
Aspergillus fumigatus [3] = experiment: Antifungal activity against Aspergillus fumigatus; details: Aspergillus fumigatus
Candida albicans [4] = experiment: Antifungal activity against Candida albicans ATCC 76615 after 24 hrs by microbroth dilution method; details: ATCC 76615, 24 h
Candida albicans [5] = experiment: Potency index, ratio of fluconazole MIC to test compound MIC for Candida albicans
Candida albicans [6] = experiment: Antifungal activity against fluconalzole-susceptible Candida albicans after 24 hrs
Candida parapsilosis [7] = experiment: Antifungal activity against fluconalzole-susceptible Candida parapsilosis after 24 hrs; details: Lodderomyces parapsilosis
Candida albicans [8] = experiment: Antifungal activity against Candida albicans CA98001; details: Candida albicans, CA98001; read-out: MIC
Candida albicans [9] = experiment: Antifungal activity against Candida albicans DSY735; details: Candida albicans, DSY735; read-out: MIC
Candida albicans [10] = experiment: Antifungal activity against Candida albicans CAAL-74; details: Candida albicans, CAAL-74; read-out: MIC
Pichia kudriavzevii [11] = experiment: Antifungal activity against Candida krusei CK506; details: Pichia kudriavzevii, CK506; read-out: MIC
Pichia kudriavzevii [12] = experiment: Antifungal activity against Candida krusei CK8; details: Pichia kudriavzevii, CK8; read-out: MIC
Nakaseomyces glabratus = experiment: Antifungal activity against Candida glabrata CG468; details: Nakaseomyces glabratus, CG468; read-out: MIC
Candida parapsilosis [13] = experiment: Antifungal activity against Candida parapsilosis CAPA1; details: Lodderomyces parapsilosis, CAPA1; read-out: MIC
Candida parapsilosis [14] = experiment: Antifungal activity against Candida parapsilosis CAPA2; details: Lodderomyces parapsilosis, CAPA2; read-out: MIC
Aspergillus fumigatus [15] = experiment: Antifungal activity against Aspergillus fumigatus AF98003

MIC80 (Candida albicans [1]) [µM]	MIC80 (Candida parapsilosis [2]) [µM]	MIC80 (Candida tropicalis) [µM]	MIC80 (Kluyveromyces marxianus) [µM]	MIC80 (Cryptococcus neoformans) [µM]	MIC80 (Trichophyton rubrum) [µM]	MIC80 (Aspergillus fumigatus [3]) [µM]	MIC80 (Candida albicans [4]) [µM]	MIC (Candida albicans [6]) [mg/L]	MIC (Candida parapsilosis [7]) [mg/L]	MIC (Candida albicans [8]) [mg/L]	MIC (Candida albicans [9]) [mg/L]	MIC (Candida albicans [10]) [mg/L]	MIC (Pichia kudriavzevii [11]) [mg/L]	MIC (Pichia kudriavzevii [12]) [mg/L]	MIC (Nakaseomyces glabratus) [mg/L]	MIC (Candida parapsilosis [13]) [mg/L]	MIC (Candida parapsilosis [14]) [mg/L]	MIC (Aspergillus fumigatus [15]) [mg/L]	Structure (SMILES)	Ratio (Candida albicans [5])
0.01 to 0.56 (≈ 0.00428 to 0.24 µg/mL)	0.01 to 0.56 (≈ 0.00428 to 0.24 µg/mL)	0.01 to 0.56 (≈ 0.00428 to 0.24 µg/mL)	0.01 to 0.56 (≈ 0.00428 to 0.24 µg/mL)	0.01 to 0.56 (≈ 0.00428 to 0.24 µg/mL)	0.01 to 0.56 (≈ 0.00428 to 0.24 µg/mL)	0.01 to 0.56 (≈ 0.00428 to 0.24 µg/mL)	0.01 to 0.56 (≈ 0.00428 to 0.24 µg/mL)												OC(CN1CCC(OCc2ccccc2)CC1)(Cn1cncn1)c1ccc(F)cc1F (stereo not given)	82
0.01 (≈ 0.00463 µg/mL)	0.01 to 2.33 (≈ 0.00463 to 1.08 µg/mL)	0.01 to 2.33 (≈ 0.00463 to 1.08 µg/mL)	0.01 to 2.33 (≈ 0.00463 to 1.08 µg/mL)	0.01 to 2.33 (≈ 0.00463 to 1.08 µg/mL)	0.03 to 0.15 (≈ 0.0139 to 0.0694 µg/mL)	0.55 to 2.33 (≈ 0.255 to 1.08 µg/mL)	0.01 to 2.33 (≈ 0.00463 to 1.08 µg/mL)												OC(CN1CCC(OCc2ccccc2Cl)CC1)(Cn1cncn1)c1ccc(F)cc1F (stereo not given)	82
0.01 (≈ 0.00497 µg/mL)	0.01 to 2.33 (≈ 0.00497 to 1.16 µg/mL)	0.01 to 2.33 (≈ 0.00497 to 1.16 µg/mL)	0.01 to 2.33 (≈ 0.00497 to 1.16 µg/mL)	0.01 to 2.33 (≈ 0.00497 to 1.16 µg/mL)	0.03 to 0.15 (≈ 0.0149 to 0.0746 µg/mL)	0.55 to 2.33 (≈ 0.274 to 1.16 µg/mL)	0.01 to 2.33 (≈ 0.00497 to 1.16 µg/mL)												OC(CN1CCC(OCc2ccc(Cl)cc2Cl)CC1)(Cn1cncn1)c1ccc(F)cc1F (stereo not given)	82
0.01 (≈ 0.00497 µg/mL)	0.01 to 2.33 (≈ 0.00497 to 1.16 µg/mL)	0.01 to 2.33 (≈ 0.00497 to 1.16 µg/mL)	0.01 to 2.33 (≈ 0.00497 to 1.16 µg/mL)	0.01 to 2.33 (≈ 0.00497 to 1.16 µg/mL)	0.03 to 0.15 (≈ 0.0149 to 0.0746 µg/mL)	0.55 to 2.33 (≈ 0.274 to 1.16 µg/mL)	0.01 to 2.33 (≈ 0.00497 to 1.16 µg/mL)												OC(CN1CCC(OCc2ccc(Cl)c(Cl)c2)CC1)(Cn1cncn1)c1ccc(F)cc1F (stereo not given)	82
0.01 (≈ 0.00463 µg/mL)	0.01 to 2.33 (≈ 0.00463 to 1.08 µg/mL)	0.01 to 2.33 (≈ 0.00463 to 1.08 µg/mL)	0.01 to 2.33 (≈ 0.00463 to 1.08 µg/mL)	0.01 to 2.33 (≈ 0.00463 to 1.08 µg/mL)	0.03 to 0.15 (≈ 0.0139 to 0.0694 µg/mL)	0.55 to 2.33 (≈ 0.255 to 1.08 µg/mL)	0.01 to 2.33 (≈ 0.00463 to 1.08 µg/mL)												OC(CN1CCC(OCc2cccc(Cl)c2)CC1)(Cn1cncn1)c1ccc(F)cc1F (stereo not given)	82
0.01 (≈ 0.00453 µg/mL)	0.01 to 2.33 (≈ 0.00453 to 1.06 µg/mL)	0.01 to 2.33 (≈ 0.00453 to 1.06 µg/mL)	0.01 to 2.33 (≈ 0.00453 to 1.06 µg/mL)	0.01 to 2.33 (≈ 0.00453 to 1.06 µg/mL)	0.03 to 0.15 (≈ 0.0136 to 0.068 µg/mL)	0.55 to 2.33 (≈ 0.249 to 1.06 µg/mL)	0.01 to 2.33 (≈ 0.00453 to 1.06 µg/mL)												N#Cc1ccc(COC2CCN(CC(O)(Cn3cncn3)c3ccc(F)cc3F)CC2)cc1 (stereo not given)	82
0.01 to 0.56 (≈ 0.00507 to 0.284 µg/mL)	0.01 to 0.56 (≈ 0.00507 to 0.284 µg/mL)	0.01 to 0.56 (≈ 0.00507 to 0.284 µg/mL)	0.01 to 0.56 (≈ 0.00507 to 0.284 µg/mL)	0.01 to 0.56 (≈ 0.00507 to 0.284 µg/mL)	0.01 to 0.56 (≈ 0.00507 to 0.284 µg/mL)	0.01 to 0.56 (≈ 0.00507 to 0.284 µg/mL)	0.01 to 0.56 (≈ 0.00507 to 0.284 µg/mL)												OC(CN1CCC(OCc2cccc(Br)c2)CC1)(Cn1cncn1)c1ccc(F)cc1F (stereo not given)	82
0.01 to 0.56 (≈ 0.00446 to 0.25 µg/mL)	0.01 to 0.56 (≈ 0.00446 to 0.25 µg/mL)	0.01 to 0.56 (≈ 0.00446 to 0.25 µg/mL)	0.01 to 0.56 (≈ 0.00446 to 0.25 µg/mL)	0.01 to 0.56 (≈ 0.00446 to 0.25 µg/mL)	0.01 to 0.56 (≈ 0.00446 to 0.25 µg/mL)	0.01 to 0.56 (≈ 0.00446 to 0.25 µg/mL)	0.01 to 0.56 (≈ 0.00446 to 0.25 µg/mL)												OC(CN1CCC(OCc2ccccc2F)CC1)(Cn1cncn1)c1ccc(F)cc1F (stereo not given)	82
0.01 (≈ 0.00446 µg/mL)	0.01 to 2.33 (≈ 0.00446 to 1.04 µg/mL)	0.01 to 2.33 (≈ 0.00446 to 1.04 µg/mL)	0.01 to 2.33 (≈ 0.00446 to 1.04 µg/mL)	0.01 to 2.33 (≈ 0.00446 to 1.04 µg/mL)	0.03 to 0.15 (≈ 0.0134 to 0.067 µg/mL)	0.55 to 2.33 (≈ 0.246 to 1.04 µg/mL)	0.01 to 2.33 (≈ 0.00446 to 1.04 µg/mL)												OC(CN1CCC(OCc2ccc(F)cc2)CC1)(Cn1cncn1)c1ccc(F)cc1F (stereo not given)	82
								0.063 to 1 (≈ 0.141 to 2.24 µM)	0.063 to 1 (≈ 0.141 to 2.24 µM)										OC(Cn1cncn1)(Cn1cnc(SCc2ccc(F)cc2)n1)c1ccc(F)cc1F (stereo not given)	
										0.001 to 0.069 (≈ 0.0018 to 0.124 µM)	0.001 to 0.069 (≈ 0.0018 to 0.124 µM)	0.001 to 0.069 (≈ 0.0018 to 0.124 µM)	0.001 to 0.069 (≈ 0.0018 to 0.124 µM)	0.001 to 0.069 (≈ 0.0018 to 0.124 µM)	0.001 to 0.069 (≈ 0.0018 to 0.124 µM)	0.001 to 0.069 (≈ 0.0018 to 0.124 µM)	0.001 to 0.069 (≈ 0.0018 to 0.124 µM)	0.767 to 3.57 (≈ 1.38 to 6.42 µM)	CCCc1ccc(NS(=O)(=O)c2ccc(CN(C)CC(O)(Cn3cncn3)c3ccc(F)cc3F)cc2)cc1 (stereo not given)	
								0.063 to 1 (≈ 0.124 to 1.97 µM)	0.063 to 1 (≈ 0.124 to 1.97 µM)										OC(Cn1cncn1)(Cn1cnc(SCc2ccc(Br)cc2)n1)c1ccc(F)cc1F (stereo not given)	
								0.063 to 1 (≈ 0.147 to 2.33 µM)	0.063 to 1 (≈ 0.147 to 2.33 µM)										OC(Cn1cncn1)(Cn1cnc(SCc2ccccc2)n1)c1ccc(F)cc1F (stereo not given)	
										0.001 to 0.069 (≈ 0.00203 to 0.14 µM)	0.001 to 0.069 (≈ 0.00203 to 0.14 µM)	0.001 to 0.069 (≈ 0.00203 to 0.14 µM)	0.001 to 0.069 (≈ 0.00203 to 0.14 µM)	0.001 to 0.069 (≈ 0.00203 to 0.14 µM)	0.001 to 0.069 (≈ 0.00203 to 0.14 µM)	0.001 to 0.069 (≈ 0.00203 to 0.14 µM)	0.001 to 0.069 (≈ 0.00203 to 0.14 µM)	0.767 to 3.57 (≈ 1.55 to 7.23 µM)	CC(C)CNS(=O)(=O)c1ccc(CN(C)CC(O)(Cn2cncn2)c2ccc(F)cc2F)cc1 (stereo not given)	
